Assay results as given in US20090099192A1, “Substituted 1H-pyrrole-2,5-diones” (Bayer CropScience AG, priority 2004, published 2009).

Assay: logP determination by HPLC on reversed-phase column (C 18), EEC Directive 79/831 Annex V.A8
Format: physicochemical
Conditions: reversed-phase C 18, 43° C., acid range (0.1% aqueous phosphoric acid, acetonitrile), marked a)
Experimental: a) The logP values given in table 1 were determined in accordance with EEC Directive 79/831 Annex V.A8 by HPLC (High Performance Liquid Chromatography) on a reversed-phase column (C 18). Temperature: 43° C. (a) Mobile phases for the determination in the acid range: 0.1% aqueous phosphoric acid, acetonitrile; linear gradient from 10% acetonitrile to 90% acetonitrile—corresponding measurement results are marked a) in table 1. Calibration was carried out using unbranched alkan-2-ones (having 3 to 16 carbon atoms) with known logP values (determination of the logP values by the retention times using linear interpolation between two successive alkanones).

SMILES | logP
N#Cc1ccc(C2=C(O)C(=O)N(CC(F)(F)F)C2=O)cc1 [Example 40] | logP = 1.94^a)
N#Cc1ccc(C2=C(O)C(=O)N(Cc3cc(Cl)cc(Cl)c3)C2=O)cc1 [Example 114] | logP = 2.94^a)
CC1CCCC(C#N)(N2C(=O)C(OC(=O)C(C)(C)C)=C(c3ccccc3Cl)C2=O)C1 (stereo not drawn) [Example 171] | logP = 5.01^a)
Cc1ccc(C2=C(O)C(=O)N(Cc3cc(Cl)cc(Cl)c3)C2=O)cc1 [Example 119] | logp = 4.42^a)
CCOC(=O)C1(N2C(=O)C(O)=C(c3ccccc3Cl)C2=O)CCCC(C)C1 (stereo not drawn) [Example 168] | logP = 3.78^a)
CCOC(=O)CCN1C(=O)C(O)=C(c2cc(Cl)cc(Cl)c2)C1=O [Example 179] | logP = 2.80^a)
N#Cc1ccc(C2=C(O)C(=O)N(c3ccc(C(F)(F)F)cc3F)C2=O)cc1 [Example 144] | logP = 6.09^a)
O=C1C(O)=C(c2cccc(OC(F)(F)F)c2)C(=O)N1Cc1ccccc1F [Example 101] | logP = 3.64^a)
O=C1C(O)=C(c2c(F)cccc2F)C(=O)N1CCC(F)(F)F [Example 44] | logP = 2.14^a)
O=C1C(O)=C(c2cc(Cl)cc(Cl)c2)C(=O)N1c1ccc(OC(F)(F)F)cc1 [Example 57] | logP = 3.56^a)
O=C1C(O)=C(c2ccc(OC(F)(F)F)cc2)C(=O)N1Cc1ccccc1F [Example 97] | logP = 3.83^a)
COC(=O)C1(N2C(=O)C(O)=C(c3ccccc3Cl)C2=O)CCCC(C)C1 (stereo not drawn) [Example 166] | logP = 3.48^a)
CCCCOC1CCCC(N2C(=O)C(O)=C(c3ccccc3Cl)C2=O)C1 (stereo not drawn) [Example 153] | logP = 4.09^a)
Cc1cc(C)c(C2=C(O)C(=O)N(Cc3ccc(OC(F)(F)F)cc3)C2=O)c(C)c1 [Example 81] | logP = 4.24^a)
O=C1C(O)=C(c2cccc(OC(F)(F)F)c2)C(=O)N1c1ccc(C(F)(F)F)cc1 [Example 71] | logP = 3.75^a)
O=C1C(O)=C(c2cc(Cl)cc(Cl)c2)C(=O)N1CC(F)(F)F [Example 43] | logP = 2.67^a)
CCOC(=O)C1(N2C(=O)C(O)=C(c3ccccc3Cl)C2=O)CCC(OC)CC1 (single isomer, unassigned) [Example 151] | logP = 2.53^a)
Cc1ccc(-c2ccc(Cl)cc2)cc1C1=C(O)C(=O)N(c2ccccc2Cl)C1=O [Example 129] | logP = 4.03^a)
O=C1C(O)=C(c2ccc(Cl)cc2)C(=O)N1CC(F)(F)F [Example 41] | logP = 2.82^a)
CC(C)(C)OC(=O)N1CCCC(N2C(=O)C(O)=C(c3ccccc3Cl)C2=O)C1 (stereo not drawn) [Example 155] | logP = 3.18^a)
CCOC(=O)C1(N2C(=O)C(OC(=O)C(C)(C)C)=C(c3ccccc3Cl)C2=O)CCCCC1 [Example 169] | logP = 5.50^a)
O=C1C(O)=C(c2cc(Cl)cc(Cl)c2)C(=O)N1CCC(F)(F)F [Example 49] | logP = 2.94^a)
O=C1C(O)=C(c2ccc(Cl)cc2)C(=O)N1Cc1ccccc1F [Example 99] | logP = 3.56^a)
O=C1C(O)=C(c2ccc(Cl)cc2)C(=O)N1c1ccc(OC(F)(F)F)cc1 [Example 55] | logP = 3.83^a)
Cc1ccc(-c2ccc(Cl)cc2)cc1C1=C(O)C(=O)N(Cc2cc(Cl)ccc2Cl)C1=O [Example 139] | logP = 4.84^a)

SMILES | logP
O=C1C(O)=C(c2ccc(Cl)cc2)C(=O)N1c1ccc(C(F)(F)F)cc1 [Example 70] | logP = 3.70^a)
O=C1C(O)=C(c2ccccc2Cl)C(=O)N1c1ccc(Cl)cc1 [Example 60] | logP = 2.89^a)
O=C1C(O)=C(c2cc(Cl)cc(Cl)c2)C(=O)N1Cc1ccc(OC(F)(F)F)cc1 [Example 91] | logP = 4.12^a)
O=C1C(O)=C(c2ccc(Cl)cc2)C(=O)N1Cc1ccc(OC(F)(F)F)cc1 [Example 88] | logP = 4.27^a)
Cc1ccc(-c2ccc(Cl)cc2)cc1C1=C(O)C(=O)N(C(C)c2cccc(Cl)c2)C1=O (racemic) [Example 141] | logP = 4.84^a)
CCOc1cccc(F)c1CN1C(=O)C(O)=C(c2c(C)cc(C)cc2C)C1=O [Example 181] | logP = 3.68^a)
O=C1C(O)=C(c2cc(Cl)cc(Cl)c2)C(=O)N1Cc1ccccc1F [Example 102] | logP = 3.48^a)
O=C1C(O)=C(c2ccccc2F)C(=O)N1c1cc(Cl)cc(Cl)c1 [Example 73] | logP = 3.20^a)
O=C1C(O)=C(c2ccccc2Cl)C(=O)N1C1CCOCC1 [Example 154] | logP = 1.94^a)
CC1CC(N2C(=O)C(O)=C(c3ccccc3Cl)C2=O)CC(C)(C)C1 (stereo not drawn) [Example 159] | logP = 4.18^a)
CC(C)(C)C(=O)OC1=C(c2ccccc2Cl)C(=O)N(c2ccccc2)C1=O [Example 28] | logP = 4.37^a)
Cc1ccc(-c2ccc(Cl)cc2)cc1C1=C(O)C(=O)N(c2cc(F)ccc2F)C1=O [Example 146] | logP = 4.51^a)
O=C1C(O)=C(c2c(F)cccc2F)C(=O)N1c1ccc(Cl)cc1 [Example 58] | logP = 2.45^a)
Cc1ccc(-c2ccc(Cl)cc2)cc1C1=C(O)C(=O)N(c2c(Cl)cc(Cl)cc2Cl)C1=O [Example 127] | logP = 4.75^a)
Cc1cc(C)c(C2=C(OC(=O)C(C)(C)C(C)C)C(=O)N(C(C)C)C2=O)c(C)c1 [Example 20] | logP = 5.87^a)
Cc1ccc(-c2ccc(Cl)cc2)cc1C1=C(O)C(=O)N(C(C)(C)C)C1=O [Example 137] | logP = 4.51^a)
CCOc1cccc(F)c1CN1C(=O)C(O)=C(c2ccc(OC(F)(F)F)cc2)C1=O [Example 182] | logP = 4.13^a)
O=C1C(O)=C(c2ccccc2F)C(=O)N1c1ccc(C(F)(F)F)cc1 [Example 67] | logP = 3.01^a)
N#Cc1ccc(C2=C(O)C(=O)N(Cc3ccc(OC(F)(F)F)cc3)C2=O)cc1 [Example 87] | logP = 2.85^a)
O=C1C(O)=C(c2c(F)cccc2F)C(=O)N1Cc1ccccc1F [Example 94] | logP = 2.49^a)
O=C1C(O)=C(c2ccc(C(F)(F)F)cc2)C(=O)N1Cc1ccc(OC(F)(F)F)cc1 [Example 89] | logP = 4.03^a)
O=C1C(O)=C(c2ccccc2Cl)C(=O)N1c1ccccc1 [Example 24] | logP = 2.43^a)
CC1CCCC(C#N)(N2C(=O)C(O)=C(c3ccccc3Cl)C2=O)C1 (stereo not drawn) [Example 158] | logP = 3.06^a)
Cc1ccc(-c2ccc(Cl)cc2)cc1C1=C(O)C(=O)N(Cc2c(Cl)cccc2Cl)C1=O [Example 140] | logP = 4.70^a)
CC(C)(C)C(=O)OC1=C(c2ccccc2Cl)C(=O)N(C2CCOCC2)C1=O [Example 156] | logP = 3.87 ^a)

Continued, values first:

logP | SMILES
logP = 4.84^a) | Cc1ccc(-c2ccc(Cl)cc2)cc1C1=C(O)C(=O)N(Cc2ccc(OC(F)(F)F)cc2)C1=O [Example 134]
logP = 3.01^a) | CCOC(=O)C1CCCC(N2C(=O)C(O)=C(c3ccccc3Cl)C2=O)C1 (stereo not drawn) [Example 150]
logP = 4.27^a) | O=C1C(O)=C(c2cccc(C(F)(F)F)c2)C(=O)N1Cc1cc(Cl)cc(Cl)c1 [Example 112]
logP = 3.61^a) | CC1CCCC(N2C(=O)C(O)=C(c3ccccc3Br)C2=O)C1 (stereo not drawn) [Example 163]
logP = 3.57^a) | CC1CCCC(N2C(=O)C(O)=C(c3ccccc3Cl)C2=O)C1 (stereo not drawn) [Example 162]
logP = 3.04^a) | O=C1C(O)=C(c2ccccc2Cl)C(=O)N1c1cccc(C(F)(F)F)c1 [Example 26]
logP = 3.35^a) | O=C1C(O)=C(c2ccc(C(F)(F)F)cc2)C(=O)N1c1ccc(Cl)cc1 [Example 64]
logP = 3.85^a) | Cc1ccc(-c2ccc(Cl)cc2)cc1C1=C(O)C(=O)N(c2c(F)cccc2F)C1=O [Example 124]
logP = 3.51^a) | O=C1C(O)=C(c2ccc(Cl)cc2)C(=O)N1c1ccc(Cl)cc1 [Example 63]
logP = 3.10^a) | COC(=O)C1(N2C(=O)C(O)=C(c3ccccc3Cl)C2=O)CCCCC1 [Example 165]
logP = 1.82^a) | CCOc1ccc(N2C(=O)C(O)=C(c3ccccc3Cl)C2=O)nn1 [Example 29]
logP = 2.76^a) | O=C1C(O)=C(c2ccccc2F)C(=O)N1c1ccc(Cl)cc1 [Example 59]
logP = 2.70^a) | O=C1C(O)=C(c2cccc(C(F)(F)F)c2)C(=O)N1CC(F)(F)F [Example 38]
logP = 4.20^a) | O=C1C(O)=C(c2ccccc2Cl)C(=O)N1C12CC3CC(CC(C3)C1)C2 [Example 161]
logP = 4.99^a) | Cc1ccc(-c2ccc(Cl)cc2)cc1C1=C(O)C(=O)N(C(C)(C)c2cccc(Cl)c2)C1=O [Example 143]
logP = 3.51^a) | Cc1ccc(C2=C(O)C(=O)N(Cc3ccccc3F)C2=O)cc1 [Example 103]
logP = 5.03^a) | Cc1ccc(-c2ccc(Cl)cc2)cc1C1=C(O)C(=O)N(Cc2ccc(Cl)cc2Cl)C1=O [Example 121]
logP = 3.20^a) | O=C1C(O)=C(c2cc(Cl)cc(Cl)c2)C(=O)N1Cc1c(F)cccc1F [Example 109]
logP = 2.21^a) | CCOC(=O)CCN1C(=O)C(O)=C(c2ccccc2Cl)C1=O [Example 177]
logP = 4.56^a) | CC1CCCC(N2C(=O)C(O)=C(c3cccc(C(F)(F)F)c3)C2=O)C1 (stereo not drawn) [Example 175]
logP = 2.82^a) | O=C1C(O)=C(c2ccccc2F)C(=O)N1Cc1ccccc1F [Example 95]
logP = 3.40^a) | CCOC(=O)C1(N2C(=O)C(O)=C(c3ccccc3Cl)C2=O)CCCCC1 [Example 167]
logP = 3.27^a) | O=C1C(O)=C(c2ccccc2Cl)C(=O)N1c1ccc(OC(F)(F)F)cc1 [Example 52]
logP = 3.94^a) | O=C1C(O)=C(c2cccc(OC(F)(F)F)c2)C(=O)N1c1cc(Cl)cc(Cl)c1 [Example 80]
logP = 3.42^a) | O=C1C(O)=C(c2cc(Cl)cc(Cl)c2)C(=O)N1c1ccc(C(F)(F)F)cc1 [Example 72]
